Like-named read-outs stand apart in the source and are kept apart here.
Experiments:
Format in all cases: cell-based
[1] = test system: Escherichia coli (E. coli—ATCC #8739); assay: Synergy test, microtiter plate high resolution MIC assay, bacterium; details: Escherichia coli, ATCC8739, 24 h, read-out: MIC of component acting alone (QA / QB)
Procedure, shortened: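 High-resolution MICs were found by adding microbicide to one microtitre column and making ten-fold dilutions with an automated liquid handler, giving endpoints from 2 ppm to 10,000 ppm active ingredient. The MIC is the lowest concentration that prevents growth. E. coli 8739, at roughly 5×10^6 cells per mL, grew in glucose/yeast-extract-supplemented minimal salt medium (M9GY). Values above one indicate antagonism.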

[2] = test system: Pseudomonas aeruginosa (P. aeruginosa—ATCC #15442); assay: as above; details: for MIC: Pseudomonas aeruginosa
Procedure, shortened: (§1)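 Values derive from Kull synergy index (Qa/QA + Qb/QB, ppm MIC endpoints, alone vs in mixture). Endpoints from high-resolution microtiter MICs spanning 2–10,000 ppm; bacterium ~5×10^6/mL in TSB or M9GY, yeast and mold 5×10^5/mL in PDB.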

[3] = test system: Candida albicans (C. albicans—ATCC 10231); assay: Synergy test, microtiter plate high resolution MIC assay, yeast; details: for MIC: Candida albicans
Procedure, shortened: as §1

[4] = test system: Aspergillus niger (A. niger—ATCC 16404); assay: Synergy test, microtiter plate high resolution MIC assay, mold; details: for MIC: Aspergillus niger; for SI (calculated synergy index): A. niger 16404, PDB
Procedure, shortened: as §1

Cn1sccc1=O [2-methyl-3-isothiazolone, 2-methyl-4-isothiazolin-3-one]
MIC [1]: 30 µg/mL | MIC of component acting alone (QA / QB) ([2]; P. aeruginosa 15442, M9GY, 48 hours): 30 ppm | MIC ([2]; ATCC15442, 24 h, read-out: MIC of component acting alone (QA / QB), P. aeruginosa 15442, TSB, 24 hours): 50 µg/mL | MIC ([2]; ATCC15442, 48 h, read-out: MIC of component acting alone (QA / QB), P. aeruginosa 15442, M9GY, 48 hours): 20 µg/mL | MIC ([2]; ATCC15442, 48 h, read-out: MIC of component acting alone (QA / QB), P. aeruginosa 15442, TSB, 48 hours): 60 µg/mL | MIC ([2]; ATCC15442, 48 h, read-out: Qa: end-point activity (MIC) of MI in the mixture (MI alone, QA, where Qb = 0), Table 5, P. aeruginosa 15442, M9GY, 48 hours, B = Linoleamidopropyl PG-dimonium chloride phosphate): 30 µg/mL | MIC ([2]; ATCC15442, 48 h, read-out: Qa: end-point activity (MIC) of MI in the mixture (MI alone, QA, where Qb = 0), Table 5, P. aeruginosa 15442, TSB, 48 hours, B = Linoleamidopropyl PG-dimonium chloride phosphate): 80 µg/mL | MIC ([2]; ATCC15442, 48 h, read-out: Qa: end-point activity (MIC) of MI in the mixture (MI alone, QA, where Qb = 0), Table 6, P. aeruginosa 15442, TSB, 48 hours, B = Cocamidopropyl PG-dimonium chloride phosphate): 80 µg/mL | MIC ([2]; ATCC15442, 72 h, read-out: MIC of component acting alone (QA / QB), P. aeruginosa 15442, TSB, 72 hours): 70 µg/mL | MIC ([2]; ATCC15442, 72 h, read-out: Qa: end-point activity (MIC) of MI in the mixture (MI alone, QA, where Qb = 0), Table 6, P. aeruginosa 15442, M9GY, 72 hours, B = Cocamidopropyl PG-dimonium chloride phosphate): 30 µg/mL | SI (calculated synergy index) ([2]; Table 5, P. aeruginosa 15442, M9GY, 48 hours): 1.00 | SI (calculated synergy index) ([2]; Table 5, P. aeruginosa 15442, TSB, 48 hours): 1.00 | SI (calculated synergy index) ([2]; Table 6, P. aeruginosa 15442, M9GY, 72 hours): 1.00 | SI (calculated synergy index) ([2]; Table 6, P. aeruginosa 15442, TSB, 48 hours): 1.00 | MIC ([3]; ATCC10231, 24 h, read-out: MIC of component acting alone (QA / QB)): 200 µg/mL | MIC ([3]; ATCC10231, 24 h, read-out: Qa: end-point activity (MIC) of MI in the mixture (MI alone, QA, where Qb = 0)): 125 µg/mL | MIC ([3]; ATCC10231, 48 h, read-out: MIC of component acting alone (QA / QB)): 200 µg/mL | MIC ([3]; ATCC10231, 72 h, read-out: MIC of component acting alone (QA / QB)): 200 µg/mL | SI (calculated synergy index) ([3]; Table 5, C. albicans 10231, PDB, 24 hours): 1.00 | SI (calculated synergy index) ([3]; Table 6, C. albicans 10231, PDB, 24 hours): 1.00 | Qa: end-point activity (MIC) of MI in the mixture (MI alone, QA, where Qb = 0) ([3]; Table 6, C. albicans 10231, PDB, 24 hours, B = Cocamidopropyl PG-dimonium chloride phosphate): 125 ppm | MIC ([4]; ATCC16404, 96 h, read-out: MIC of component acting alone (QA / QB)): 400 µg/mL | MIC ([4]; ATCC16404, 96 h, read-out: Qa: end-point activity (MIC) of MI in the mixture (MI alone, QA, where Qb = 0)): 400 µg/mL | MIC ([4]; ATCC16404, 168 h, read-out: MIC of component acting alone (QA / QB)): 500 µg/mL | MIC ([4]; ATCC16404, 168 h, read-out: Qa: end-point activity (MIC) of MI in the mixture (MI alone, QA, where Qb = 0)): 400 µg/mL | SI (calculated synergy index) ([4]; Table 5, 7 days): 1.00 | SI (calculated synergy index) ([4]; Table 6, 4 days): 1.00

— patent US7468384B2, “Microbicidal composition” (Rohm and Haas Company, priority 2004, dated 2008)
